Source: US11237155B2, “Screening methods using olfactory receptors and novel compounds identified using the same” (MARS, INCORPORATED, priority 2016, dated 2022)

Experiments:
Format in all cases: cell-based
[1] = tested on: Cat OR5A1; experiment: CNG chAMPion assay, OR_9 (OR5A1), cat ortholog; conditions: cat OR5A1, phase 3
Procedure: chAMPion (CNG channel) assay. HEK293/CNG/nat-Clytin/RTP1 s endo cells were transiently transfected with plasmids encoding the respective OR and were seeded at 20,000 cells/well in 25 μL/well complete growth medium in poly-D-lysine coated black, clear-bottom 384 MTPs.
Data were analyzed with the Screenworks® software (Molecular Devices, version 4.0.0.30). Luminescence values (in RLU) were exported as maximum RLU between 10 s and 40 s. In addition to using raw values, the data were also normalized to background signals (wells containing buffer only) and expressed as “Fold change” (mean value (n=2)/mean value of buffer wells (n=2)). Data analysis and plotting of graphs was carried out using Excel (Microsoft) and GraphPad Prism (GraphPad Software, Inc.).

[2] = tested on: Dog OR5A1; experiment: CNG chAMPion assay, OR_9 (OR5A1), dog ortholog; conditions: dog OR5A1, phase 3
From the text: This example refers to the functional expression of different feline and canine olfactory receptors (ORs). 20 OR sequences were selected, where 10 sequences have feline origins and the remaining 10 have canine origins. These ORs were subcloned into a modified expression vector suitable for the transient, functional expression of ORs. The transiently expressed receptors were then stimulated with various concentrations of different odorants aiming to deorphanize the feline and canine ORs. […] Functional expression of the different OR sets were transient in reporter cell line A or B. The transiently transfected ORs were stimulated with 3 concentrations (n=4) of different odorants (at least 3).
chAMPion (CNG channel) assay. […]
Twenty-four hours later, the cell medium was removed manually and cells were incubated in 20 μL/well coelenterazine (11 μM) in Tyrode buffer with 0 mM calcium for 3.5 h at 37° C. Plates were then read in a luminescence plate reader (FLIPR^TETRA, Molecular Devices) with the following camera settings: exposure time: 0.533 s, maximum gain. Luminescence was recorded for 1 min after addition of 10 μL/well compounds (3× solutions prepared in Tyrode buffer with 0 mM calcium), followed by an incubation period of 30 min at 37° C. Luminescence was again recorded for 1 min after addition of 20 μL/well Tyrode buffer with 10 mM CaCl2. […]

[3] = target: T1, Human OR5A1 (Homo sapiens, UniProt Q8NGJ0); experiment: CRE-NanoLuc luciferase assay, OR_9 (OR5A1), human ortholog; conditions: human OR5A1, phase 3
T1 construct: expressed in transfected cells; host or cells: HEK293 PEAKrapid/RTP1s endo (reporter cell line A)
T1 sequence (Q8NGJ0 1-315): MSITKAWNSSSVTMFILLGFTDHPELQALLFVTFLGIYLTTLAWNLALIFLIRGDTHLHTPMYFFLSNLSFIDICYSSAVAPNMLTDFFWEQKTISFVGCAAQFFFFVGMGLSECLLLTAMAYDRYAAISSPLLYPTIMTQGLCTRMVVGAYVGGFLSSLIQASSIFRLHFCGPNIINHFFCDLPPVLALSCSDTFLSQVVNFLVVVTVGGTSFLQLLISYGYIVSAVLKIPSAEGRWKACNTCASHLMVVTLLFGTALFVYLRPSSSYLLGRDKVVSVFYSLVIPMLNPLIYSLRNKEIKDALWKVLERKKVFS

SMILES | receptor response (dose-response, fold change) [1] | EC50 (rank among the four compounds) [2] | Emax (rank among the four compounds) [2] | receptor response (dose-response, fold change) [3]
CCCCCOC(C)=O [amyl acetate, Amyl acetate] | weaker responses |  |  | 
CC(C)=CCCC(C)=CC=O [citral, Citral] | no response |  |  | 
CC(=O)/C=C/C1=C(C)CCCC1(C)C [β-ionone, beta-Ionone] | strong response | lowest EC50 | highest Emax | responds
